Like-named read-outs stand apart in the source and are kept apart here.

The conditions of series [1]: room temperature raised to 40° C., man; cited from earlier work.
The conditions of series [2]: DRI 2000, oral ingestion; cited from earlier work.
The next series has as its system colon cancer xenografts. To be noted: ip, 4 injections at 5 mg once every 3 days; cited from earlier work.
Series [3] has as its system human prostate cancer cells. The note with it: cited from earlier work.
The conditions of series [4]: the Merck index; cited from earlier work.
In series [5] the test system is chemical-induced forestomach cancer. To be noted: cited from earlier work.
For series [6], the system named is human breast cancer cells. The note with it: cited from earlier work.
Series [7] in a line: safety of TS treatment in the human subjects. Type of series: in vivo. The note with it: human subjects of this study. As to the method: The hydrolyzed products of TS are tocopherol (vitamin E) and succinic acid, an endogenous metabolite produced during the oxidation of carbohydrates, amino acids and fat. The upper safety limit for vitamin E is set at 1000 mg or 1 gm by the most recent issue of DRI (Dietary Reference Intake) for vitamin C, vitamin E selenium and carotenoids. The DRI report was published in 2000 and one of the joint inventors of the present invention served on the committee from which the report was sponsored by the Institute of Medicine, US National Academy of Sciences (Chan et al. 2000). The upper dose limit claimed in the invention herein, is below or around the upper safety limit set at 1 gm by the Institute of Medicine for oral ingestion.

The subject of series [8] is esterase in the digestive juice. The note with it: human (Howritt et al. 1984, Chessman et al. 1995); cited from earlier work.
Another series deals with murine melanoma. To be noted: ip, 15 injections at 3 mg/mouse, cited from earlier work.
The subject of series [9] is several lines of cancer cells in culture. The note with it: prior to the induction of apoptosis; cited from earlier work.
The test system of series [10] is colon cancer cell xenografts. The note with it: ip, 5 injections of 10 mg/day for 10 days; p < 0.01; cited from earlier work.
The mark [11] stands for this setting: intragastric 16 times at 1.25 g/kg.
[12] abbreviates: intragastric 16 times at 2.5 g/kg.

Regarding `O=C(O)c1ccccc1O` [salicylate], the “increase in dermal crossing” value in series [1] was 3 fold.
Consider `Cc1c(C)c2c(c(C)c1O)CC[C@@](C)(CCC[C@H](C)CCC[C@H](C)CCCC(C)C)O2` [vitamin E, RRR-alpha-tocopherol], for which, in series [2], the upper safety limit was 1000 mg.
In the case of tocopheryl succinate [TS], the “reduction in tumor volume” value in the series on colon cancer xenografts was 75% reduction in tumor volume. Further, in [3], the “expression of PSA (prostate specific antigen)” value was “strongly suppresses” and the “expression of the androgen receptors” value is listed as “inhibits”. The “solubility in vegetable oils” value in [4] is “not readily soluble”. Also, in [5] (setting [11]), the “reduction in tumor incident” value is given as 18% and the “reduction in tumor volume” value is 63%. Besides, in [5] (setting [12]), the “reduction in tumor incident” value is listed as 23% and the “reduction in tumor volume” value is listed as 81%. In addition, in [5] (ip, 8 injections at 20 mg/kg), the less tumor incident entry is listed as “reduction in tumor volume & 50%” and the “reduction in tumor volume” value is “ip treatments resulted in 84%”. For the same compound, in [6] (ip injection), the angiogensis entry is reported as “ip injection also reduce” and the “expression of VEGF (vascular endothelial growth factor)” value was “angiogensis via the suppressing”. The “reduction in tumor weight” value in series [6] (ip, 7 injections at 3 mg/day) is “ip injection resulted in 63%”. Besides, the “effect on tumor with sc injections” value in series [6] (sc, at 150 mg/kg per day) is given as “no effect with sc injections”. The “safety of treatment procedure” value in series [7] was “no concern regarding the safety”. Further, in series [8], the “fate after oral ingestion” value is “convert to tocopherol”. Besides, the proliferation result in the series on murine melanoma is “Treatment resulted in reduction of”. The tumor volume entry in the series with murine melanoma (p < 0.01) was “Treatment resulted in reduction of”. Moreover, the cellular lysosomal disruption result in [9] was “major disruption”. Besides, the tumor volume entry in [10] is recorded as “tumor volume reduced”.

Source of the values: patent publication US20040175415A1, “Formulations and methods of delivery of intact tocopheryl succinate to humans” (priority 2003, published 2004).
